Assay results: publication PMC4601051, “Discovery of Indoline-2-carboxamide Derivatives as a New Class of Brain-Penetrant Inhibitors of Trypanosoma brucei” (Journal of Medicinal Chemistry, 2015)
Like-named read-outs stand apart in the source and are kept apart here.

Assays:
[1] = system: bloodstream form T. brucei brucei; test: T. b. brucei whole cell parasite (trypanosome growth) assay; format: cell-based, Trypanosoma brucei brucei; settings: for EC50: 69 h + 4 h resazurin; for loss in potency: T. b. brucei EC50, compared to 1 (parent)
Protocol: This was conducted as previously described.[27] Cell culture plates were stamped with 1 μL of an appropriate stock concentration of test compound, followed by addition of 200 μL of trypanosome culture (HMI9-T, 10% FCS) to each well at a density of 2000 cells per well (except column 12 receiving media only). […] Potency was carried out using 10-point dose–response curves.

[2] = Microsomal intrinsic clearance (Clint), mouse; format: in vitro ADME; settings: mouse liver microsomes, 0.5 μM compound
Protocol: (§1) Each test compound (0.5 μM) was incubated with pooled female CDI mouse liver microsomes, pooled male Sprague–Dawley rat microsomes, or pooled mixed gender human liver microsomes (Tebu-Bio, UK; 0.5 mg/mL 50 mM potassium phosphate buffer, pH 7.4) and the reaction started with addition of excess NADPH (8 mg/mL, 50 mM potassium phosphate buffer, pH 7.4). Immediately, at time zero, then at 3, 6, 9, 15, and 30 min, an aliquot (50 μL) of the incubation mixture was removed and mixed with acetonitrile (100 μL) to stop the reaction. Internal standard was added to all samples, and the samples were centrifuged at 1825g for 10 min to sediment precipitated protein. The plates were then sealed prior to UPLC/MS/MS analysis using a Quattro Premier XE (Waters Corporation, USA).
(§2) XLfit (IDBS, UK) was used to calculate the exponential decay and consequently the rate constant (k) from the ratio of peak area of test compound to internal standard at each time point.

[3] = in vitro; settings: human
Protocol: Proliferation assays using bloodstream form T. brucei brucei and human MRC-5 fibroblasts were conducted using a modification of the cell viability assay as previously reported.[27],[39]
MRC-5 cells (2000 cells per well) were seeded in 200 μL of DMEM, 10% FCS, and allowed to adhere overnight. One microliter of test compound was added to each well on the day of assay initiation.
The final DMSO level was 0.5% in all cases.

[4] = Microsomal intrinsic clearance (Clint), rat; format: in vitro ADME; settings: rat liver microsomes, 0.5 μM compound
Protocol: as §1, §2

[5] = Microsomal intrinsic clearance (Clint), human; format: in vitro ADME; settings: human liver microsomes, 0.5 μM compound
Protocol: as §1, §2

[6] = Trypanosoma brucei, mean of two or more determinations, read-out: T. b. brucei EC50
[7] = mean of two or more determinations, read-out: T. b. brucei EC50

Compound | EC50 [1, 6] [nM] | mouse microsomal intrinsic clearance [2] [mL min^–1 g^–1] | EC50 at 69 h ([3]; MRC-5 fibroblasts) [nM] | further results
CNC(=O)C1Cc2ccccc2N1C(=O)Cc1ccc(Cl)cc1 (stereo not shown) [Compound 40] | 80 | 4.4 | > 50000 | improvement in activity ([1]; T. b. brucei EC50, compared to 21): approximately 3 fold
[2H]c1c([2H])c([2H])c(OCC(=O)N2c3ccccc3C[C@@H]2C(=O)NC)c([2H])c1[2H] [Compound 38] | 50 | – | > 50000 | –
CCNC(=O)C1Cc2ccccc2N1C(=O)COc1cccc(C)c1 (stereo not shown) [Compound 22] | 650 | – | > 50000 | –
CNC(=O)C1Cc2c(cc(F)c(F)c2F)N1C(=O)COc1ccc(Cl)cc1 (stereo not shown) [Compound 59] | 70 | 3.7 | > 50000 | microsomal intrinsic clearance, rat [4]: 6.7 mL min^–1 g^–1; microsomal intrinsic clearance, human [5]: 4.3 mL min^–1 g^–1
CCNC(=O)C1Cc2ccccc2N1C(=O)COc1ccc(Cl)cc1 (stereo not shown) [Compound 49] | 90 | 6.2 | > 50000 | –
CCCCNC(=O)C1Cc2ccccc2N1C(=O)COc1ccc(Cl)cc1 (stereo not shown) [Compound 50] | 19000 | 27 | > 50000 | loss in potency [1]: ~700 fold
CNC(=O)C1Cc2cc(Br)ccc2N1C(=O)COc1ccc(F)cc1 (stereo not shown) [Compound 60] | 80 | 4.6 | > 50000 | –
CNC(=O)C1Cc2ccccc2N1C(=O)COCc1ccccc1 (stereo not shown) [Compound 28] | 1900 | – | > 50000 | loss in potency [1]: ~70 fold
CNC(=O)C1Cc2ccccc2N1C(=O)Cc1ccc(F)cc1F (stereo not shown) [Compound 44] | 2300 | 0.5 | > 50000 | –
CNC(=O)[C@H]1Cc2cc(F)ccc2N1C(=O)COc1ccc(F)cc1 [Compound 56] | 40 | – | > 50000 | –
CNC(=O)C1Cc2ccccc2N1C(=O)Cc1ccc(F)cc1 (stereo not shown) [Compound 43] | 100 | 0.8 | > 50000 | EC50 [1, 7]: 110 nM
CNC(=O)C1Cc2ccccc2N1C(=O)Cc1cccc2ccccc12 (stereo not shown) [Compound 39] | – | 28 | – | T. b. brucei potency in words [1]: complete loss of potency; EC50 ([1]; Trypanosoma brucei, read-out: T. b. brucei EC50, mean of two or more determinations): 50000 nM; EC50 at 69 h [3]: > 50000 nM
CNC(=O)[C@H]1Cc2ccccc2N1C(=O)COc1ccc(F)c(F)c1 [Compound 37] | 30 | 3.2 | > 50000 | –
CNC(=O)C1Cc2ccccc2N1C(=O)Cc1ccc(C(F)(F)F)cc1 (stereo not shown) [Compound 42] | 100 | 3.0 | > 50000 | EC50 [1, 7]: 110 nM
CNC(=O)C1N(C(=O)COc2ccc(Cl)cc2)c2ccccc2C1(C)C (stereo not shown) [Compound 63] | 920 | 14 | > 50000 | loss in potency [1]: ~34 fold
CNC(=O)C1Cc2cc(-c3ccccc3)ccc2N1C(=O)COc1ccc(F)cc1 (stereo not shown) [Compound 61] | 240 | – | > 50000 | loss in potency [1]: ~10 fold; microsomal intrinsic clearance, rat [4]: 25 mL min^–1 g^–1
CCNC(=O)C1Cc2ccccc2N1C(=O)CCC1CCCC1 (stereo not shown) [Compound 23] | 990 | – | > 50000 | –
CNC(=O)C1Cc2ccccc2N1C(=O)Cc1ccccc1 (stereo not shown) [Compound 21] | 220 | – | > 15000 | –
CNC(=O)C1Cc2ccccc2N1C(=O)COc1cccc(OC)c1 (stereo not shown) [Compound 19] | 450 | – | > 50000 | –

Compound | EC50 [1, 6] [nM] | mouse microsomal intrinsic clearance [2] [mL min^–1 g^–1] | EC50 at 69 h ([3]; MRC-5 fibroblasts) [nM] | further results
CNC(=O)C1Cc2cc(F)c(F)cc2N1C(=O)COc1ccc(F)cc1 (stereo not shown) [Compound 57] | 90 | 2.0 | > 50000 | microsomal intrinsic clearance, rat [4]: 2.8 mL min^–1 g^–1; microsomal intrinsic clearance, human [5]: 1.9 mL min^–1 g^–1
CNC(=O)C1Cc2ccccc2CN1C(=O)COc1ccc(F)cc1 (stereo not shown) [Compound 66] | 37000 | – | > 50000 | –
O=C(NC1CC1)C1Cc2ccccc2N1C(=O)COc1ccc(Cl)cc1 (stereo not shown) [Compound 51] | 410 | 5.5 | > 50000 | loss in potency [1]: ~14 fold
CNC(=O)C1Cc2ccccc2N1C(=O)COc1ccc(C)cc1 (stereo not shown) [Compound 34] | 30 | 6.5 | > 50000 | microsomal intrinsic clearance, rat [4]: 47 mL min^–1 g^–1; microsomal intrinsic clearance, human [5]: 2.4 mL min^–1 g^–1
Cc1cccc(OCC(=O)N2c3ccccc3CC2C(N)=O)c1 (stereo not shown) [Compound 24] | 13000 | – | > 50000 | –
CNC(=O)C1Cc2cc(F)cc(F)c2N1C(=O)COc1ccc(F)cc1 (stereo not shown) [Compound 58] | 80 | 2.9 | > 50000 | –
CN(C)C(=O)C1Cc2ccccc2N1C(=O)COc1ccc(Cl)cc1 (stereo not shown) [Compound 48] | 5400 | – | > 50000 | loss in potency [1]: 200 fold
CCOc1ccc(OCC(=O)N2c3ccccc3CC2C(=O)NC)cc1 (stereo not shown) [Compound 17] | 310 | – | > 50000 | –
CNC(=O)[C@H]1Cc2ccccc2N1C(=O)Cc1ccc(Cl)c(F)c1 [Compound 45] | 80 | 8.4 | > 50000 | –
CNC(=O)C1Cc2ccccc2N1C(=O)COc1ccc2ccccc2c1 (stereo not shown) [Compound 18] | 2900 | – | > 50000 | –
CNC(=O)C1Cc2ccccc2N1C(=O)COc1ccc(Cl)c(F)c1 (stereo not shown) [Compound 29] | 30 | 4.4 | > 50000 | microsomal intrinsic clearance, rat [4]: 13.5 mL min^–1 g^–1; microsomal intrinsic clearance, human [5]: 3.3 mL min^–1 g^–1
CNC(=O)C1Cc2ccccc2N1C(=O)COc1ccccc1 (stereo not shown) [Compound 31] | 40 | 6.9 | > 50000 | microsomal intrinsic clearance, rat [4]: 9.0 mL min^–1 g^–1; microsomal intrinsic clearance, human [5]: 1.4 mL min^–1 g^–1
CNC(=O)C1Cc2ccccc2N1C(=O)Cc1ccc(C(C)C)cc1 (stereo not shown) [Compound 41] | 770 | 35 | > 50000 | –
CNC(=O)C1Cc2ccccc2N1C(=O)COc1ccc(Cl)c(Cl)c1 (stereo not shown) [Compound 30] | 400 | 9.1 | > 50000 | loss in potency [1]: 15 fold
CNC(=O)C1Cc2ccccc2N1C(=O)Cc1ccc(F)c(F)c1 (stereo not shown) [Compound 46] | 110 | 1.9 | > 50000 | –
CNC(=O)C1Cc2ccccc2N1C(=O)Cc1cccs1 (stereo not shown) [Compound 20] | 660 | – | > 50000 | –
CNC(=O)C1Cc2cc(-c3ccncc3)ccc2N1C(=O)COc1ccc(F)cc1 (stereo not shown) [Compound 62] | 440 | – | > 50000 | loss in potency [1]: ~10 fold
CC(C)Oc1ccc(C(=O)N2c3ccccc3CC2C(N)=O)cc1 (stereo not shown) [Compound 25] | > 50000 | – | > 50000 | –
